Reference: US11058702B2 (EMEK, Inc., priority 2014, dated 2021)
“And” between values parts separate entries of the source, which are not always exact repeats. Identical values can stand only once. Like-named read-outs stand apart in the source and are kept apart here.

Experiments:
human cancer cell models = assay: IUdR+MX in experimental human cancer cell models; type: cell-based
Excerpt: BER processing typically leads to chemotherapy drug and IR resistance. Consequently, the recognition and detection of BER-deficient cancers and/or the development of chemical inhibitors of specific BER enzymes can reverse alkylating and anti-metabolite drug resistance, as well as IR resistance. Based in part on the pre-clinical results from Dr. Kinsella's lab, methoxyamine (MX), a chemical inhibitor of BER, is currently undergoing clinical testing as TRC-102 in combination with chemotherapy drugs including temozolomide. MX is a small organic amine derivative of alkoxyamine that blocks the short patch BER pathway by covalently binding the AP site formed by a specific glycosylase, rendering it refractory to the catalytic activity of AP endonuclease 1. A MX-bound AP site is repaired much more slowly (>300×) than a normal AP site, and enhances cell death.

AP site = settings: cited from earlier work
[1] = system: herpes simplex virus-infected HeLa cells; settings: cited from earlier work
IPdR aldehyde oxidase = settings: intestine, bone marrow, lung and kidney; cited from earlier work
[2] = system: locally advanced pancreas cancer; assay: Predicted clinical use of IPdR + gemcitabine + RT; type: in vivo, human; settings: from 40%
Excerpt: The patient will continue to take oral IPdR in addition to receiving gemcitabine therapy throughout the course of RT, and will discontinue IPdR following completion of RT.

[3] = in vivo
Excerpt: It has been previously reported that kinetically distinct forms of aldehyde oxidase exist in male and female rodent liver, and that these distinct forms occur as a result of differences in redox state and not in cDNA sequencing. […] A high degree of homology exists between mouse and human aldehyde oxidase.

[4] = Plasma PK of once daily po IPdR x 28 days; type: in vivo, Fischer-344 rats
Excerpt: Cancer research. 1994; 54(10):2695-700. […] Plasma samples are processed by solvent deproteinization.
This study was requested by the FDA as part of the pre-clinical testing of po IPdR prior to IND submission. […] Thus, the PK profile for po IPdR appears quite similar in mice and rats.

[5] = parameters: species or system ferret; settings: in vivo
[6] = system: HT-29, HCT 116, U251 and U87 xenografts; assay: Tumor regrowth assay of response to RT; type: in vivo, athymic mice
high-grade gliomas = assay: Predicted clinical use of IPdR + RT (+TMZ); type: in vivo, human
Excerpt: Dysregulation of other DNA repair pathways, including both MMR and BER, are reported to contribute to the aggressive biology and poor prognosis of high-grade gliomas. In a recent comprehensive analysis of the messenger ribonucleic acid (mRNA) expression levels in 157 DNA repair genes in two large, publically available, gene expression data sets from 699 GBM tumors, the expression levels of a key BER glycolylase (APE1) and a key MMR protein (PMS2) were reported to be independent prognostic biomarkers of survival following treatment with RT alone or TMZ alone. Based on this novel DNA repair prognostic index for GBM and other high-grade gliomas, future clinical studies of the use of RT+IPdR would stratify for specific molecular subsets of high-grade gliomas with intact MGMT (i.e. unmethylated promoter) and deficient MMR. […] In both clinical scenarios, the enhanced IPdR-mediated radiosensitization would be predicted to improve the duration of survival by 50%, as reflected in the early trials of ci IUdR+RT (Table 1).
The patient will initially undergo maximal surgical resection, with a goal of <5% residual disease (the infiltrative nature of high-grade gliomas dictates this goal). […] The patient will continue TMZ and IPdR throughout the course of RT.

[7] = cited from earlier work
[8] = system: cellular DNA of HCT-116, HT-29, U251 xenografts, bone marrow, intestine, liver
Protocol: After fixing the single-cell suspension with 70% ethanol in normal saline, the DNA is partially denatured with 2N HCl and subsequently reacted with a mouse anti-IUdR monoclonal antibody (Becton-Dickinson) followed by incubation with a fluorescein isothiocyanate-labeled goat anti-mouse secondary antibody. Finally, the nuclei are incubated with propidium iodide (PI) to label the DNA. Flow cytometric analysis is performed using two color analysis with emissions of fluorescein isothiocyanate detected with 530 nm short pass filters and PI detected with 630 nm long pass filters. In various embodiments, a minimum of 10,000 events is analyzed per sample, and the percentage of labeled cells is calculated.
Subsequently, single cells are disrupted and the DNA is enzymatically digested into free nucleosides. DNA extraction and digestion are performed by incubation with 10% trichloroacetic acid, followed by RNA digestion in 0.25M NaOH and enzymatic digestion with DNA-ase, alkaline phosphate and phosphodiesterase in MgCl and potassium phosphate buffer. A Waters 600E solvent delivery system on a 3.9×300 mm μ Bondapak reverse-phase column (Waters Corp, Milford, Mass.) is used. The mobile phase consists of 100 mm of sodium acetate buffer (pH 5.45) plus 7% (v/v) acetonitrile. Peak identification and quantitation of IUdR and thymidine (TdR) are performed against authentic nucleoside standards. The % IUdR-DNA replacement (or % TdR replacement) is calculated according to:

in vivo = settings: daily po bolus (gastric gavage) for 6 days
Protocol: No further dose escalations were used because of the increased risk of pulmonary aspiration with larger drug volumes (≥2000 mg/kg/d).

[9] = system: locally advanced rectal cancer; assay: Predicted clinical use of po IPdR + RT + capecitabine; type: in vivo, human; settings: po IPdR added to RT+capecitabine
Excerpt: The biochemical and cellular interactions of RT+FP are felt to result from inhibition of the enzyme, thymidylate synthetase (TS) by the FP monophosphate metabolite, FdUMP, leading to decreased (or unbalanced) nucleotide pools necessary for DNA synthesis and decreased DNA repair following RT damage. […] The clinical and PK data from this ongoing clinical trial will be used in the design of a future Phase II clinical trial of IPdR+RT+twice daily po capecitabine as pre-operative therapy in patients with locally advanced rectal cancer.
The patient will continue to take oral IPdR in addition to capecitabine therapy throughout the course of RT, and will discontinue IPdR and capecitabine following completion of RT.

chordoma = assay: Predicted clinical use of IPdR + proton therapy; type: in vivo, human; settings: IPdR added to PT
Excerpt: The patient will continue to take oral IPdR throughout the course of PT, and will discontinue IPdR following completion of PT.
PT as a modality of RT is gaining popularity as it allows delivery of higher doses of IR with equivalent or less toxicity (i.e. the TI of PT is higher than that of conventional RT). The use of PT, however, is limited by availability (limited number of PT centers), feasibility (logistics involved in the administration of PT formidable), and the cost (cost of PT is, on average, 3-5 times the cost of conventional RT).

[10] = Plasma pharmacokinetics of po IPdR in athymic mice
Excerpt: These nucleoside analogs are extracted from the plasma by the addition of 5-chloro-2′-deoxyuridine (internal standard) and acetonitrile. The samples are redissolved in deionized water for HPLC analysis using a Spectra-Physics P2000 pump and UV2000 detection (Spectra-Physics Analytical, Fremont, Calif.) on a 3.9×300 mm μ Bondapak C18 reverse phase column (Waters Associates, Milford, Mass.). […] Plasma samples are processed by solvent deproteinization. […] All solvents should be high-pressure liquid chromatography (HPLC) grade.

[11] = human colorectal and glioblastoma xenografts
[12] = IPdR+TMZ+RT, MGMT promoter methylated GBM

CON [MX, methoxyamine]
effect of IUdR+MX on % IUdR-DNA incorporation and radiosensitization (human cancer cell models): enhances
slower repair of MX-bound AP site than normal AP site (AP site): > 300 ×

O=c1ncc(I)cn1[C@H]1C[C@H](O)[C@@H](CO)O1 [IPdR]
toxicity to uninfected cells or mice [1]: without toxicity
antiviral activity ([1]; in vitro and in vivo following po administration): significant activity
activity of IPdR aldehyde oxidase in other normal tissues vs liver (IPdR aldehyde oxidase): 10 fold less
expected percentage of patients achieving R0-resection [2]: > 60%
clearance from plasma [3]: rapidly cleared from plasma in a bi-exponential fashion
Cmax values for IPdR with increasing dose ([4]; 0.2 or 1.0 gm/kg/day): less than dose proportional
IUdR AUC values vs dose ([4]; after po IPdR): proportional with increasing dose
time of peak IUdR concentrations ([4]; after po IPdR dosing): ≤ 15 min
mean half-life for IUdR ([4]; females, after po IPdR): 8 h
mean elimination half-life for IPdR ([4]; highest dose): ~5 h
mean half-life for IUdR ([4]; males, after po IPdR): 6 h
absorption of po IPdR ([4]; rat, in vivo, po): not dependent on sex, dose, or single (Day 1) versus multiple daily dosings (Day 28)
time of maximal concentrations of IPdR ([4]; single doses of 1.0 gm/kg/day): 90 min
AUC values for IPdR after 28 days ([4]; vs Day 1): less than those observed after Day 1
blood cell counts, liver function tests, kidney function tests, urinalysis [5]: No significant abnormalities
gross findings at complete necropsy [5]: no anatomic lesions
hematologic, biochemical, or histopathologic changes [5]: no significant hematologic,
histology of CNS tissues [5]: No histological changes
kidney and uterus weights [5]: decreased
liver weights [5]: increased
microscopic changes in liver [5]: minimal to moderate cytoplasmic vacuolation of hepatocytes
weight loss at highest dose [5]: species. Noted mild weight
enhancement of response to RT with po IPdR [6, 11]: IUdR. 1.3-1.5 fold
calculated SER for po IPdR ([6]; mouse, in vivo, po): 1.3-1.5
LD50 (IPdR, one dose/day×14-28 days): never reached
TI of IPdR in animals (LD50/ED50): ∞
deaths (very high doses, one dose/day×14-28 days): no deaths were seen
predicted prolongation of survival (high-grade gliomas; [12]): up to 70%
predicted survival (high-grade gliomas; [12]): 24 months
predicted improvement of duration of survival (high-grade gliomas; RT+IPdR or RT+IPdR+TMZ): 50%
plasma concentrations of IUdR vs oral dose of IPdR ([7]; 150 mg to 2400 mg): generally increased
peak IUdR plasma levels ([7]; IPdR 2400 mg po, 6 patients): 4.0 ± 1.02 µmol/L
IUdR half-life ([7]; IPdR 2400 mg po): 1.5 h
time IUdR plasma levels remained above 1 umol/L ([7]; IPdR 2400 mg po): 3 to 4 h
time to peak IUdR plasma levels ([7]; IPdR 2400 mg po): 1.67 ± 1.21 h
toxicities ([7]; po IPdR 150 mg-2400 mg): No toxicities.
IUdR levels decreasing over 8 hours to ([7]; po IPdR dose of 2400 mg): 1 µM
duration of peak plasma levels of IUdR ([7]; po IPdR dose of 2400 mg): 4 h
peak plasma levels of IUdR ([7]; po IPdR dose of 2400 mg): > 4 µM
transient plasma levels of IUdR ([7]; po IPdR): up to 4 μMol/L
adverse events (NCI Common Toxicity Criteria version 4.0) ([7]; single po dose 150-2400 mg, 10 patients): no drug-related adverse events
radiosensitization compared to continuous infusion IUdR ([8]; % IUdR-DNA incorporation as surrogate): more effective radiosensitizer
increase in % IUdR-DNA cellular incorporation in tumor vs MTD of po IUdR ([8]; IPdR 1 g/kg/d for 6 days, HCT-116): 2-3 fold
IUdR-DNA incorporation in tumors, po IPdR vs ci IUdR [8, 11]: Increased IUdR-DNA
increase in % IUdR-DNA tumor cell incorporation, po IPdR compared to ci IUdR ([8]; human tumor xenografts, MTD schedules of IUdR): 2-3 fold and 2 fold
IUdR-DNA incorporation in normal tissues, po IPdR vs ci IUdR ([8]; mouse, in vivo, po): decreased in normal
decrease in % IUdR-DNA incorporation in bone marrow and intestine, po IPdR compared to ci IUdR ([8]; mouse, in vivo, po): 2 fold and 2-3 fold
less % IUdR-DNA incorporation in bone marrow and intestine, po IPdR vs po IUdR ([8]; mouse, in vivo, po): ≥ 2 fold
% IUdR-DNA incorporation, liver tumor metastases vs sc tumor ([8]; po IPdR, HCT-116): no differential effect
normal tissue systemic toxicities compared to continuous infusion IUdR ([8]; weight loss, myelosuppression): less normal tissue systemic toxicities
tolerated dose (in vivo): up to 1 g/kg/d
further improvement in DFS [9]: 10-15%
postulated pCR rate ([9]; from 10-15%): 30-35%
predicted increase of the TI of the IR (chordoma): up to 1.5 ×
peak plasma levels of IUdR ([10]; bolus 250 mg/kg IPdR po): up to 45 μM
time to peak plasma levels of IUdR ([10]; bolus 250 mg/kg IPdR po): ≤ 15 min
plasma levels of IPdR at 45 and 90 min ([10]; po 1500 mg/kg): remain elevated
time to peak plasma level of IPdR ([10]; po IPdR bolus): 10 to 20 min
time to peak plasma level of IUdR ([10]; po IPdR bolus): 10 to 20 min
time to peak plasma level of metabolite IP ([10]; po bolus of IPdR): 45 to 90 min
time to peak plasma level of metabolite IU ([10]; po bolus of IPdR): 45 to 90 min
